Consider one compound from patent US9012436B2, “Lipid composition” (Diurnal Limited, priority 2008, dated 2015).

The nature of the data set: Solubilisation capacity of formulation systems for testosterone. Here is the method:
The formulation systems as detailed in Table 1 all show significant solubilisation capacity for testosterone (>50 mg/^1) which is at least 100-fold higher than that achievable in aqueous media (<0.3 mg/g^1) and at least 5-fold higher than that achievable in single component lipidic vehicles alone (max.<10 mg/g).
^1N.B: For aqueous systems 1 g=1 mL; for oil systems 1 g=>1 mL

Where only a bound is given, the exact number is not on record here.

Turning to `C[C@]12CC[C@H]3[C@@H](CCC4=CC(=O)CC[C@@]43C)[C@@H]1CC[C@@H]2O` [testosterone], under “aqueous media”, the “Solubility of testosterone achievable in aqueous media” value is < 0.3 mg/g. Further, under “single component lipidic vehicles, max.”, the “Solubility of testosterone achievable in single component lipidic vehicles alone” value is recorded as < 10 mg/g.
